Assay results reported in PubChem BioAssay (NCI).
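These data come from cells grown in 96-well plates and exposed to compound for 48 hours at five concentrations. At the TGI there is no net growth.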

How the values were obtained:
Experiment in all cases: NCI-60 cell line screen, 48 h
786-0 renal = tested on: 786-0 renal
UACC-257 melanoma = tested on: UACC-257 melanoma
T-47D breast = tested on: T-47D breast
SR leukemia = tested on: SR leukemia
HS 578T breast = tested on: HS 578T breast
HL-60(TB) leukemia = tested on: HL-60(TB) leukemia
LOX IMVI melanoma = tested on: LOX IMVI melanoma
SF-295 CNS = tested on: SF-295 CNS
CAKI-1 renal = tested on: CAKI-1 renal
MCF7 breast = tested on: MCF7 breast
HCT-15 colon = tested on: HCT-15 colon
UACC-62 melanoma = tested on: UACC-62 melanoma
SK-OV-3 ovarian = tested on: SK-OV-3 ovarian
NCI/ADR-RES ovarian = tested on: NCI/ADR-RES ovarian
SK-MEL-28 melanoma = tested on: SK-MEL-28 melanoma
HT29 colon = tested on: HT29 colon
MDA-MB-231 breast = tested on: MDA-MB-231 breast
OVCAR-5 ovarian = tested on: OVCAR-5 ovarian
SN12C renal = tested on: SN12C renal
M14 melanoma = tested on: M14 melanoma
PC-3 prostate = tested on: PC-3 prostate
IGROV1 ovarian = tested on: IGROV1 ovarian
NCI-H23 lung = tested on: NCI-H23 lung
OVCAR-8 ovarian = tested on: OVCAR-8 ovarian
ACHN renal = tested on: ACHN renal
MOLT-4 leukemia = tested on: MOLT-4 leukemia
UO-31 renal = tested on: UO-31 renal
SK-MEL-5 melanoma = tested on: SK-MEL-5 melanoma
NCI-H226 lung = tested on: NCI-H226 lung
MDA-MB-435 = tested on: MDA-MB-435
K-562 leukemia = tested on: K-562 leukemia
COLO 205 colon = tested on: COLO 205 colon
HOP-92 NSCLC = tested on: HOP-92 NSCLC
HOP-62 NSCLC = tested on: HOP-62 NSCLC
U251 CNS = tested on: U251 CNS
SF-539 CNS = tested on: SF-539 CNS
SNB-19 CNS = tested on: SNB-19 CNS
NCI-H460 lung = tested on: NCI-H460 lung
MALME-3M melanoma = tested on: MALME-3M melanoma
KM12 colon = tested on: KM12 colon
RPMI-8226 leukemia = tested on: RPMI-8226 leukemia
HCT-116 colon = tested on: HCT-116 colon
CCRF-CEM leukemia = tested on: CCRF-CEM leukemia
MDA-N = tested on: MDA-N
A549 NSCLC = tested on: A549 NSCLC
OVCAR-4 ovarian = tested on: OVCAR-4 ovarian
SNB-75 CNS = tested on: SNB-75 CNS
SF-268 CNS = tested on: SF-268 CNS
HCC-2998 colon = tested on: HCC-2998 colon
DU-145 prostate = tested on: DU-145 prostate
OVCAR-3 ovarian = tested on: OVCAR-3 ovarian
SW-620 colon = tested on: SW-620 colon
RXF 393 renal = tested on: RXF 393 renal
NCI-H522 lung = tested on: NCI-H522 lung
EKVX NSCLC = tested on: EKVX NSCLC
TK-10 renal = tested on: TK-10 renal
A498 renal = tested on: A498 renal
SK-MEL-2 melanoma = tested on: SK-MEL-2 melanoma

`CCOC(=O)C(NC(=O)CC)(Nc1ccc(S(=O)(=O)Nc2ncccn2)cc1)C(F)(F)F` (configuration not stated) showed a TGI (786-0 renal) greater than 100 µM, a TGI (UACC-257 melanoma) greater than 100 µM and a TGI (T-47D breast) greater than 100 µM. The TGI (SR leukemia) was greater than 100 µM, the TGI (HS 578T breast) was greater than 100 µM and the TGI (HL-60(TB) leukemia) was greater than 100 µM. It also gave a TGI (LOX IMVI melanoma) greater than 100 µM, a TGI (SF-295 CNS) greater than 100 µM and a TGI (CAKI-1 renal) greater than 100 µM. It also gave a TGI (MCF7 breast) greater than 100 µM, a TGI (HCT-15 colon) greater than 100 µM and a TGI (UACC-62 melanoma) greater than 100 µM. It also gave a TGI (SK-OV-3 ovarian) greater than 100 µM, a TGI (NCI/ADR-RES ovarian) greater than 100 µM and a TGI (SK-MEL-28 melanoma) greater than 100 µM. For the same compound, the TGI (HT29 colon) was greater than 100 µM, the TGI (MDA-MB-231 breast) was greater than 100 µM and the TGI (OVCAR-5 ovarian) was greater than 100 µM. For the same compound, the TGI (SN12C renal) was greater than 100 µM, the TGI (M14 melanoma) was greater than 100 µM and the TGI (PC-3 prostate) was greater than 100 µM. The TGI (IGROV1 ovarian) was greater than 100 µM, the TGI (NCI-H23 lung) was greater than 100 µM and the TGI (OVCAR-8 ovarian) was greater than 100 µM. The TGI (ACHN renal) was greater than 100 µM, the TGI (MOLT-4 leukemia) was greater than 100 µM and the TGI (UO-31 renal) was greater than 100 µM. The TGI (SK-MEL-5 melanoma) was greater than 100 µM, the TGI (NCI-H226 lung) was greater than 100 µM and the TGI (MDA-MB-435) was greater than 100 µM. The TGI (K-562 leukemia) was greater than 100 µM, the TGI (COLO 205 colon) was greater than 100 µM and the TGI (HOP-92 NSCLC) was greater than 100 µM. It also gave a TGI (HOP-62 NSCLC) greater than 100 µM, a TGI (U251 CNS) greater than 100 µM and a TGI (SF-539 CNS) greater than 100 µM. The TGI (SNB-19 CNS) was greater than 100 µM, the TGI (NCI-H460 lung) was greater than 100 µM and the TGI (MALME-3M melanoma) was greater than 100 µM. For the same compound, the TGI (KM12 colon) was greater than 100 µM, the TGI (RPMI-8226 leukemia) was greater than 100 µM and the TGI (HCT-116 colon) was greater than 100 µM. The TGI (CCRF-CEM leukemia) was greater than 100 µM, the TGI (MDA-N) was greater than 100 µM and the TGI (A549 NSCLC) was greater than 100 µM. It also gave a TGI (OVCAR-4 ovarian) greater than 100 µM, a TGI (SNB-75 CNS) greater than 100 µM and a TGI (SF-268 CNS) greater than 100 µM. It also gave a TGI (HCC-2998 colon) greater than 100 µM, a TGI (DU-145 prostate) greater than 100 µM and a TGI (OVCAR-3 ovarian) greater than 100 µM. It also gave a TGI (SW-620 colon) greater than 100 µM, a TGI (RXF 393 renal) greater than 100 µM and a TGI (NCI-H522 lung) greater than 100 µM. For the same compound, the TGI (EKVX NSCLC) was greater than 100 µM.

Compound `CCCCCCCc1c(Cl)nc(Cl)nc1Cl` has a TGI (786-0 renal) of 10.2 µM, a TGI (UACC-257 melanoma) of 23.3 µM and a TGI (T-47D breast) of 30.4 µM. The TGI (SR leukemia) was 3.14 µM, the TGI (HS 578T breast) was 33.2 µM and the TGI (HL-60(TB) leukemia) was 5.34 µM. For the same compound, the TGI (LOX IMVI melanoma) was 4.49 µM, the TGI (SF-295 CNS) was 31.6 µM and the TGI (CAKI-1 renal) was 5.36 µM. The TGI (MCF7 breast) was 26.9 µM, the TGI (TK-10 renal) was 26.7 µM and the TGI (HCT-15 colon) was 10.1 µM. The TGI (UACC-62 melanoma) was 20.5 µM, the TGI (SK-OV-3 ovarian) was 18.5 µM and the TGI (NCI/ADR-RES ovarian) was 13.3 µM. For the same compound, the TGI (SK-MEL-28 melanoma) was 18.6 µM, the TGI (HT29 colon) was 13.6 µM and the TGI (MDA-MB-231 breast) was 9.54 µM. For the same compound, the TGI (OVCAR-5 ovarian) was 21 µM, the TGI (SN12C renal) was 4.65 µM and the TGI (M14 melanoma) was 4.71 µM. For the same compound, the TGI (PC-3 prostate) was 23.7 µM, the TGI (IGROV1 ovarian) was 4.83 µM and the TGI (NCI-H23 lung) was 10.2 µM. The TGI (OVCAR-8 ovarian) was 5.18 µM, the TGI (ACHN renal) was 20.8 µM and the TGI (MOLT-4 leukemia) was 3.51 µM. The TGI (UO-31 renal) was 17.3 µM, the TGI (SK-MEL-5 melanoma) was 14.8 µM and the TGI (NCI-H226 lung) was 4.68 µM. It also gave a TGI (MDA-MB-435) of 5.94 µM, a TGI (K-562 leukemia) of 4.16 µM and a TGI (COLO 205 colon) of 17.9 µM. It also gave a TGI (HOP-92 NSCLC) of 11.4 µM, a TGI (HOP-62 NSCLC) of 33.2 µM and a TGI (U251 CNS) of 9.89 µM. For the same compound, the TGI (SF-539 CNS) was 23.5 µM, the TGI (SNB-19 CNS) was 24.4 µM and the TGI (NCI-H460 lung) was 27.8 µM. It also gave a TGI (MALME-3M melanoma) of 8.83 µM, a TGI (KM12 colon) of 25 µM and a TGI (RPMI-8226 leukemia) of 8.85 µM. For the same compound, the TGI (HCT-116 colon) was 9.2 µM, the TGI (CCRF-CEM leukemia) was 2.66 µM and the TGI (MDA-N) was 13.1 µM. For the same compound, the TGI (A549 NSCLC) was 32.8 µM, the TGI (OVCAR-4 ovarian) was 9.87 µM and the TGI (SNB-75 CNS) was 28.9 µM. For the same compound, the TGI (SF-268 CNS) was 16.3 µM, the TGI (HCC-2998 colon) was 17 µM and the TGI (A498 renal) was 34.6 µM. It also gave a TGI (DU-145 prostate) of 27.4 µM, a TGI (OVCAR-3 ovarian) of 17.1 µM and a TGI (SW-620 colon) of 6.21 µM. It also gave a TGI (RXF 393 renal) of 6.26 µM, a TGI (NCI-H522 lung) of 3.85 µM and a TGI (EKVX NSCLC) of 22.2 µM.

In the case of `O=c1ssc2ncccc12`, the TGI (786-0 renal) is reported as 38.2 µM, the TGI (UACC-257 melanoma) is reported as 50.4 µM and the TGI (T-47D breast) is reported as greater than 100 µM. For the same compound, the TGI (SR leukemia) was greater than 100 µM, the TGI (HS 578T breast) was greater than 100 µM and the TGI (HL-60(TB) leukemia) was greater than 100 µM. For the same compound, the TGI (LOX IMVI melanoma) was 35 µM, the TGI (SF-295 CNS) was greater than 100 µM and the TGI (CAKI-1 renal) was greater than 100 µM. The TGI (MCF7 breast) was 33 µM, the TGI (TK-10 renal) was greater than 100 µM and the TGI (HCT-15 colon) was 27.4 µM. For the same compound, the TGI (UACC-62 melanoma) was 24 µM, the TGI (SK-OV-3 ovarian) was greater than 100 µM and the TGI (NCI/ADR-RES ovarian) was greater than 100 µM. The TGI (SK-MEL-28 melanoma) was 42.5 µM, the TGI (HT29 colon) was 53.6 µM and the TGI (MDA-MB-231 breast) was 26.2 µM. The TGI (OVCAR-5 ovarian) was 55.1 µM, the TGI (SN12C renal) was 28.8 µM and the TGI (M14 melanoma) was 41.8 µM. For the same compound, the TGI (PC-3 prostate) was greater than 100 µM, the TGI (NCI-H23 lung) was greater than 100 µM and the TGI (ACHN renal) was 31.9 µM. For the same compound, the TGI (MOLT-4 leukemia) was greater than 100 µM, the TGI (UO-31 renal) was 32 µM and the TGI (SK-MEL-5 melanoma) was 25.9 µM. The TGI (NCI-H226 lung) was 7.65 µM, the TGI (MDA-MB-435) was 31.5 µM and the TGI (K-562 leukemia) was greater than 100 µM. It also gave a TGI (COLO 205 colon) of 34.8 µM, a TGI (HOP-92 NSCLC) greater than 100 µM and a TGI (HOP-62 NSCLC) of 45.5 µM. For the same compound, the TGI (U251 CNS) was 33.1 µM, the TGI (SF-539 CNS) was 70.5 µM and the TGI (SNB-19 CNS) was greater than 100 µM. For the same compound, the TGI (NCI-H460 lung) was 52.3 µM, the TGI (MALME-3M melanoma) was 50.2 µM and the TGI (KM12 colon) was 48 µM. The TGI (RPMI-8226 leukemia) was 40.5 µM, the TGI (HCT-116 colon) was 40.1 µM and the TGI (CCRF-CEM leukemia) was greater than 100 µM. For the same compound, the TGI (MDA-N) was 34.9 µM, the TGI (A549 NSCLC) was 39.7 µM and the TGI (SNB-75 CNS) was 34.9 µM. For the same compound, the TGI (SF-268 CNS) was 69.6 µM, the TGI (HCC-2998 colon) was 39.3 µM and the TGI (A498 renal) was greater than 100 µM. The TGI (DU-145 prostate) was greater than 100 µM, the TGI (SK-MEL-2 melanoma) was 27.8 µM and the TGI (OVCAR-3 ovarian) was 35.6 µM. The TGI (SW-620 colon) was 43.6 µM, the TGI (RXF 393 renal) was 37.4 µM and the TGI (NCI-H522 lung) was 28.9 µM. For the same compound, the TGI (EKVX NSCLC) was greater than 100 µM.
